Laboratory results as given in patent US20110159086A1, “PHARMACEUTICAL FORMULATION COMPRISING A CB1-RECEPTOR COMPOUND IN A SOLID SOLUTION AND/OR SOLID DISPERSION” (LABORATORIOS DEL DR. ESTEVE, S.A., priority 2008, published 2011).
Read-outs that look alike come from different tables or passages of the source.

Tests used:
[1] = Pharmacokinetic study in rats, plasma levels of the (4S,5S) cis enantiomer by chiral LC-MS/MS; format: in vivo, male Wistar Hannover rats; settings: for Vd: male, rat
[2] = Dissolution profiles of the hot melt extrusion formulations, Sink conditions (HCL 0.1N, pH 1.2 + Sodium Lauryl Sulfate 0.1%); format: physicochemical; settings: for % dissolved (pH 1.2 SLS 0.1%): Sink, HCL 0.1N pH 1.2 + SLS 0.1%, paddles 50 rpm, 1000 ml, 37° C.
From the text: (§1) A mixture has been prepared during two minutes in proportion as described in Table 4. The “Hot Melt Extrusion” formulations, in percentage, have been developed for each series.
(§2) The mixture has been loaded in an extruder and the temperature has been adjusted according to the type of polymer used, as described below:
(§3) The obtained extrudates have been cooled at room temperature and milled. The particle size has then been homogenized. A powder has been obtained which has then been dosified in capsules for administration
(§4) The dissolution apparatus used was HANSON […]. SR8 PLUS, the UV spectrophotometer HEWLET PACKARD 8452.
In the SINK conditions, the active ingredient concentration in the dissolution medium is below 20% of the saturation concentration, i.e. the active ingredient will dissolve easily in the medium.
The conditions used for the Sink assays were:
Dissolution medium: HCL 0.1N, pH 1.2+Sodium Lauryl Sulfate 0.1%
(§5) Vessel temperature 37° C.

[3] = Dissolution profiles of the hot melt extrusion formulations, Non-Sink conditions (HCL 0.1N, pH 1.2); format: physicochemical; settings: for % dissolved (pH 1.2): Non-Sink, HCL 0.1N pH 1.2, paddles 50 rpm, 1000 ml, 37° C.
From the text: as §1, §2, §3, §4
In the NON-SINK conditions, the active ingredient concentration in the dissolution medium is above the saturation concentration, i.e. the active ingredient is in a medium in which it is not soluble.
The conditions used for the Non-Sink assays were:
Dissolution medium: HCL 0.1N, pH 1.2
as §5

[4] = Wistar Hannover (HSDHan:WIST), po, 20 mg/kg, male rat, single dose, fasting, analyte (4S,5S) cis enantiomer in plasma, suspension = active alone in 5% arabic gum, HME = example 15
[5] = Wistar Hannover, plasma, iv, 1 mg/kg, male rat, solution
[6] = Solubility increase (Δ) = FD60 min formulation/FD % 60 min (drug), FD = dissolved drug fraction

C[C@@H]1C(C(=O)NN2[C@H](C)CCC[C@@H]2C)=NN(c2ccc(Cl)cc2Cl)[C@@H]1c1ccc(Cl)cc1 [(4S,5S) cis enantiomer, (4S,5S)-5-(4-chlorophenyl)-1-(2,4-dichlorophenyl)-N-(cis-2,6-dimethylpiperidin-1-yl)-4-methyl-4,5-dihydro-1H-pyrazole-3-carboxamide]
AUC(0-t) [1, 4]: 374 ng·h/mL | Tmax [1, 4]: 6 h | Cmax ([1]; Wistar Hannover (HSDHan:WIST), po, 20 mg/kg, male rat, single dose, fasting, analyte (4S,5S) cis enantiomer in plasma, suspension = active alone in 5% arabic gum, HME = example 15, read-out: Cmax): 103 ng/mL | AUC(0-inf) [1, 5]: 559 ng·h/mL | AUC(0-t) [1, 5]: 534 ng·h/mL | clearance [1, 5]: 30 mL/min/kg | half-life [1, 5]: 8.2 h | Cmax ([1]; Wistar Hannover, plasma, iv, 1 mg/kg, male rat, solution, read-out: Cmax (C0 for intravenous)): 828 ng/mL | Vd ([1]; Wistar Hannover, plasma, iv, 1 mg/kg, iv, 1 mg/kg, solution, read-out: Vd): 21.1 L/kg | Vd ([1]; Wistar Hannover, plasma, iv, 1 mg/kg, iv, 1 mg/kg, solution, read-out: Vss): 8.7 L/kg | F (Absolute bioavailability estimated from AUC0-t) ([1]; po, 20 mg/kg, male rat, versus iv 1 mg/kg solution, suspension = active alone in 5% arabic gum, HME = example 15): 3.5% | Increase (Δ) 60 min. Sink Conditions [2, 6]: 0.00 | % dissolved (pH 1.2 SLS 0.1%) ([2]; time 0 min): 0.0% | % dissolved (pH 1.2 SLS 0.1%) ([2]; time 5 min): 4.1% | % dissolved (pH 1.2 SLS 0.1%) ([2]; time 10 min): 6.5% | % dissolved (pH 1.2 SLS 0.1%) ([2]; time 15 min): 11.8% | % dissolved (pH 1.2 SLS 0.1%) ([2]; time 20 min): 16.0% | % dissolved (pH 1.2 SLS 0.1%) ([2]; time 30 min): 24.3% | % dissolved (pH 1.2 SLS 0.1%) ([2]; time 45 min): 37.8% | % dissolved (pH 1.2 SLS 0.1%) ([2]; time 60 min): 53.0% | Increase (Δ) 60 min. Non Sink Conditions [3, 6]: 0.00 | % dissolved (pH 1.2) ([3]; time 0 min): 0.0% | % dissolved (pH 1.2) ([3]; time 5 min): 2.2% | % dissolved (pH 1.2) ([3]; time 10 min): 1.9% | % dissolved (pH 1.2) ([3]; time 15 min): 1.4% | % dissolved (pH 1.2) ([3]; time 20 min): 1.5% | % dissolved (pH 1.2) ([3]; time 30 min): 1.6% | % dissolved (pH 1.2) ([3]; time 45 min): 2.7% | % dissolved (pH 1.2) ([3]; time 60 min): 2.9%
